Laboratory results taken from a melting point compilation (Tetko et al.; mined from patent text by program, amines drawn as free bases though some values may be those of a salt).

For `Brc1ccc2nc(-c3ccccc3)nn2c1`, the melting point was 146 °C.
In the case of `O=C(O)c1ccc(-n2cc[nH]c2=S)cc1`, the melting point is reported as 194 to 196 °C.
Work on `COc1ccc(N2CCc3ccccc32)c([N+](=O)[O-])c1` yielded a melting point of 88 to 90 °C.
`Cn1c(C(F)(F)F)cc(=O)n(-c2cc(OC3CC=CNC3=O)c(Cl)cc2F)c1=O` (stereo not drawn) gave a melting point of 91 °C.
`CN(Cc1ccc(-c2ccc(OCC#N)c(Br)c2)cc1)C(=O)c1cn(C)c2ccccc12` gave a melting point of 202 to 206 °C.
`c1ccc(CSc2nnc(-c3ccc4c(c3)CCO4)o2)cc1` showed a melting point of 148 to 149 °C.
Molecule `COc1cccc2c1Cc1ccccc1C2(CC(=O)O)CC(=O)O` has a melting point of 150 to 153 °C.
`CN(C)c1cc(=S)ss1` showed a melting point of 193 °C.
Molecule `COC(=O)COc1ccc(-c2ccc3c(c2)c(C)c(-c2ccccc2)n3Cc2ccccc2)cc1` has a melting point of 167 to 170 °C.
Molecule `CCCCCCCCCCCCn1nnc(CC(=O)O)n1` has a melting point of 70 to 73 °C.
For `O=C(NCc1ccccn1)c1ccc(C2=NOC(c3cc(Cl)cc(Cl)c3)(C(F)(F)F)C2)cc1C(F)(F)F` (stereo not drawn), the melting point was 69 to 70 °C.
In the case of `CSc1nc(C)ccc1NC(=O)CCCCCCCCSc1nc2ccccc2o1`, the melting point is reported as 99 to 100 °C.
Work on `CCCn1nc2c(N)nc3c(c2c1CCCc1cc(C)no1)CCCC3` yielded a melting point of 144 to 145 °C.
Work on `O=C1C(c2ccccc2)=C(c2ccccc2)C(=O)N1c1cccc(Cl)c1` yielded a melting point of 144 to 145 °C.
`COC(=O)c1ccc(CN2C(=O)C3(COc4cc5c(cc43)CCO5)c3ccccc32)cc1` (stereo not drawn) showed a melting point of 136 to 140 °C.
In the case of `CCOC(=O)COc1cccc(/C=C/c2nc3ccccc3s2)c1`, the melting point is reported as 150 to 151 °C.
Work on `Cc1cc(COc2c(Cl)cc(CCl)cc2Cl)oc(=O)c1` yielded a melting point of 136 °C.
Molecule `CN(C)C=C(C#N)C(=O)c1nccs1` has a melting point of 126 °C.
`Cc1ccc2c(c1)c1c(n2C(=O)c2ccccc2)CCCC1C(=O)OCc1ccccc1` (stereo not drawn) showed a melting point of 119 to 121 °C.
With `CCN(CC)C(=O)n1cc(F)c(S(=O)(=O)c2c(Cl)cc(Cl)cc2Cl)n1` the melting point was 89 to 90 °C.
For `CN(C)CCOC(=O)C(=O)c1ccc(OCCOc2ccc3ccccc3c2)cc1`, the melting point was 93 to 94 °C.
`CCCCCCCCCCCCCCCC(=O)NO` showed a melting point of 100 to 101 °C.
Work on `O=C(Nc1cc2ncc(CN3CCCC3)cc2cc1F)c1ccc(-c2ccc(Cl)cc2)cc1F` yielded a melting point of 217 to 219 °C.
Work on `COC(=O)c1ccc2cc(-c3ccc4c(c3)C(C)(C)CCC4(C)C)n(C)c2c1` yielded a melting point of 156 °C.
With `O=C(COc1cc(-c2ccccc2)nc2ccc(Cl)cc12)N1CCOCC1` the melting point was 182 °C.
Molecule `CCOC(=O)c1[nH]ccc1OCC` has a melting point of 81 to 83 °C.
For `O=C1CCC(c2ccccc2)(c2ccccc2)[C@@H]2CN(C(=O)Cc3c(Cl)cccc3Cl)C[C@H]12` (racemic), the melting point was 201 °C.
With `C[C@H](NC(=O)c1c(N)cccc1F)C(=O)O` the melting point was 194 to 198 °C.
With `CCOc1cccc(-c2nc(=O)c3ccccc3s2)n1` the melting point was 180 °C.
Molecule `OCCCc1cc(-c2ccc(Cl)cc2)n(-c2ccc(Cl)nn2)n1` has a melting point of 131 to 133 °C.
Molecule `CCCCCCCCCCCCCCCCCCOc1cc(N)cc(OCCCOc2ccccc2)c1` has a melting point of 74 to 76 °C.
Work on `O=[N+]([O-])C=CC1=CCN(c2ccccc2)N1` yielded a melting point of 150 °C.
`Cn1nnnc1SCC(=O)Nc1ccc(C2CCCCC2)cc1` showed a melting point of 204 to 205 °C.
`CCCCCCCCCCCCCCCc1cccc(OC)c1` gave a melting point of 27 to 28 °C.
In the case of `O=C(O)CCC(=O)Nc1ccc(N2CCN(c3ccncc3)CC2)cc1`, the melting point is reported as 263 to 264 °C.
`CCC1CCn2c(nc(-c3ccncn3)cc2=O)N1` (stereo not drawn) showed a melting point of 226 to 228 °C.
For `O=C1C(=O)N(Cc2ccccc2F)c2ccc(S(=O)(=O)N3CC[C@H]3COc3ccccc3)cc21`, the melting point was 147 to 148 °C.
Molecule `Cc1ccccc1-c1cccc(C=NNC(=S)NN2CCCC2)n1` has a melting point of 172 to 173 °C.
`O=C(c1ccccc1)c1cccnc1Cl` showed a melting point of 35 to 37 °C.
`O=S(=O)(CC1CC1)c1nc[nH]n1` showed a melting point of 140 to 149 °C.
With `CCCCc1nn(CC(=O)c2ccccc2)c(=O)n1Cc1ccc(-c2ccccc2-c2nnn[nH]2)cc1` the melting point was 89 to 92 °C.
`COc1ccc2c(c1)C(=O)N(CCCN(C)CCN1C(=O)c3cc(OC)ccc3C(C)(C)C1=O)C(=O)C2(C)C` gave a melting point of 142 to 143 °C.
With `CCCCCCCCCCCOc1cccc(CCCC(NC(C)=O)(C(=O)OCC)C(=O)OCC)c1` the melting point was 38 to 39 °C.
In the case of `COc1ccc(OC)c2c1C[C@@H](O)[C@H](NC(C)C)C2` (relative stereo), the melting point is reported as 144 to 145 °C.
For `Nc1ncccc1C(=O)NCCCOc1ccc(-c2ccc(=O)[nH]n2)cc1`, the melting point was 232 to 234 °C.
With `CC(C)NCCCS(=O)(=O)O` the melting point was 240 to 243 °C.
For `O=C(NCCC1CCN(c2noc3cc(Cl)ccc23)CC1)c1nsc2ccccc12`, the melting point was 132 to 134 °C.
`CC(=O)N[C@@H]1[C@H](O)CC(C(=O)O)=C[C@H]1OC(C)C` gave a melting point of 64 to 65 °C.
`Cc1nnc(-c2ccc3occ(-c4cccc(OCc5ccccc5)c4)c3c2)o1` gave a melting point of 96 to 97 °C.
`CCOC(=O)CC(c1cccnc1)N1C(=O)c2ccccc2C1=O` (stereo not drawn) showed a melting point of 72.3 to 72.8 °C.
For `O=C(O)CCN1CCN(C2=Nc3ccccc3Cc3ccccc32)CC1`, the melting point was 140 to 141 °C.
For `CCCCc1nc(C(=O)C(C)C)c(C#N)[nH]1`, the melting point was 88 to 89 °C.
With `COc1ccc(Nc2nc(NC3CCCCCC3)nc(N(C)C3CCN(C)CC3)n2)cc1Cl` the melting point was 173 to 176 °C.
`CC=CC(=O)Nc1n[nH]c2cc(Br)ccc12` showed a melting point of 232 °C.
For `O=C(O)CCCCCCCCC1=CC(O)CC1=O` (stereo not drawn), the melting point was 58 to 66 °C.
With `Cc1noc(C(=O)NCCc2ccc(S(N)(=O)=O)cc2)n1` the melting point was 218 to 220 °C.
In the case of `Cc1ccc(-c2c(Cl)nc(-c3cccs3)nc2NS(=O)(=O)c2ccc(C(C)(C)C)cc2)cc1`, the melting point is reported as greater than 300 °C.
`Cc1ccc(S(=O)(=O)N2CCCC(CS(=O)(=O)c3ccccc3)C2)cc1` (stereo not drawn) gave a melting point of 135 to 136 °C.
In the case of `Cc1ccc(NC(=O)N(C)N)cc1NC(=O)N(C)N`, the melting point is reported as 164 to 165 °C.
`COc1c(Cl)cc(-c2cc(F)c(F)cc2-c2ccc(S(N)(=O)=O)cc2)cc1Cl` gave a melting point of 146 °C.
`COC(=O)CCc1cc2cc(Cl)ccc2n1S(=O)(=O)c1ccc(OC)cc1` gave a melting point of 98 to 99 °C.
`COc1ccc(C2CC(c3ccc(O)cc3)C2)cc1` (stereo not drawn) showed a melting point of 96 to 110 °C.
`Cc1ccc(C(=O)N[C@H]2CC[C@H](O)CC2)c(Nc2ccc3[nH]ncc3c2)n1` gave a melting point greater than 280 °C.
In the case of `CCC(CC)C(c1ccnn1-c1ccccc1)N(C)S(=O)(=O)c1ccc(Cl)s1` (stereo not drawn), the melting point is reported as 126 to 128 °C.
With `COC(=O)CC(C(=O)OC)c1ccccc1` (stereo not drawn) the melting point was 54 to 56 °C.
In the case of `CCOC(=O)C(=CC=C(O)C(=O)O)Sc1ccc2ccccc2c1`, the melting point is reported as 182 °C.
For `CCCc1nc(SC(F)F)c(C(=O)O)n1Cc1ccc(-c2ccccc2S(=O)(=O)NC(=O)NCc2cccc3ccccc23)cc1`, the melting point was 144 °C.
`N#Cc1c(Cc2ccccc2)nn(C2CCCC2)c1N` gave a melting point of 180 to 182 °C.
With `CN(C)c1ccc2c(c1)O/C(=C1/Oc3cc(N(C)C)ccc3C1=O)C2=O` the melting point was greater than 320 °C.
In the case of `CCCNCC(=O)Nc1ccc2c(c1)C(=O)c1cc(NC(=O)CNCCC)ccc1C2=O`, the melting point is reported as 143 °C.
For `O=C1CC(C(=O)C(F)(F)F)Cc2ccccc21` (stereo not drawn), the melting point was 48 to 49 °C.
`N#Cc1c(N2CCCCC2)cc(-c2ccccc2)c2c1C(=O)c1ccccc1-2` gave a melting point of 220 to 222 °C.
In the case of `O=C(O)c1cccc(-c2ccc3c(c2)C(c2ccc(Cl)cc2Cl)CCO3)c1` (stereo not drawn), the melting point is reported as 223 to 224 °C.
For `CC(O)c1ccc(C(O)C(C)(C)C)cc1` (stereo not drawn), the melting point was 118 to 121 °C.
In the case of `CC1=C(N)C(C)C2CC(C)(CN3CCN(c4ccc(-n5ccnc5)cc4)CC3)OC2=C1C` (stereo not drawn), the melting point is reported as 165 to 167 °C.
Molecule `Cc1cc(OC(C)C)ccc1N1CCCn2c1nc1c(Cl)ccc(C(OC(F)F)C(F)(F)F)c12` (stereo not drawn) has a melting point of 198 to 204 °C.
With `CCCC(COS(C)(=O)=O)(OC(C)C)c1ccc(Cl)cc1Cl` (stereo not drawn) the melting point was 58 to 61 °C.
In the case of `COC(=O)c1cc(C=NO)cc([N+](=O)[O-])c1`, the melting point is reported as 144 to 145 °C.
Work on `COc1ccc(N(CCCC(=O)N(CCCC(=O)O)c2c(C)cccc2C)C(=O)c2ccc(Cl)cc2)cc1` yielded a melting point of 131 to 133 °C.
With `CCOC(=O)C1(Cc2cccc(C)c2Br)CN(Cc2ccccc2)CCC1=O` (stereo not drawn) the melting point was 60 to 61 °C.
Work on `CCc1nnc(-c2ccc(N(C)C)cc2)n1-c1ccc(OC)cc1` yielded a melting point of 148 °C.
Molecule `CCOC(=O)n1nc2c(c1N)CN(C(=O)N[C@H](CN(C)C)c1ccccc1)C2(C)C` has a melting point of 96 to 97 °C.
`CCOc1cc2ncc(C#N)c(Nc3ccc4c(c3)NCC4)c2cc1OCC` showed a melting point of 121 to 124 °C.
With `ClC1=Nc2ccccc2Oc2cscc21` the melting point was 215 to 217 °C.
In the case of `CCCCS(=O)(=O)Nc1ccc(CCCCOCCCCCCNCC(O)c2ccc(O)c(CO)n2)cc1` (stereo not drawn), the melting point is reported as 55 to 57 °C.
For `Cc1cc2c(c3c1NC(=O)CC3)OC(CO)C2` (stereo not drawn), the melting point was 172 to 173 °C.
`CC=Cc1cc(-c2ccc(F)cc2)cc(C(=O)O)c1O` gave a melting point of 196 to 200 °C.
In the case of `Nc1ccc2oc3c(OC(F)F)ccc(C(=O)Nc4c(Cl)cncc4Cl)c3c2c1`, the melting point is reported as 87 to 89 °C.
In the case of `CC(C(=O)O)c1ccc(-c2ccccc2F)c(F)c1` (stereo not drawn), the melting point is reported as 120 to 123 °C.
Molecule `O=C1c2sccc2-n2cnc(-c3noc(CCl)n3)c2[C@@H]2CCN12` has a melting point of 210 to 213 °C.
With `CCC(=O)NCC=C1CCc2ccc3nc(CCCCc4ccccc4)oc3c21` the melting point was 111 to 113 °C.
With `NC1(CC(=O)O)CCCCC1` the melting point was 200 to 204 °C.
Molecule `O=C(N[C@H]1CC[C@H](CCN2CCC(c3cccc4c3CCO4)CC2)CC1)c1ccc2c(c1)OCO2` has a melting point of 233 °C.
Molecule `CCN1CCC(=O)C(=C2SC=CS2)C1=O` has a melting point of 114 to 117 °C.
Molecule `Cc1c(OCc2ccccc2)cc(C(C)(C)C)cc1[N+](=O)[O-]` has a melting point of 77 to 79 °C.
Work on `CCC(C)(C)Nc1c(NCc2cccc(Cl)c2Cl)c(=O)c1=O` yielded a melting point of 222 to 223 °C.
Molecule `CC1(C)N=C(Oc2ccnc(O)c2)c2cc(C#N)ccc2O1` has a melting point of 275 to 278 °C.
In the case of `NS(=O)(=O)c1cc2cc(O)cnc2s1`, the melting point is reported as 270 to 271 °C.
With `Nc1cnccc1CNC(=O)C1Cc2ccccc2N1S(=O)(=O)c1ccc(-c2cccc(C(F)(F)F)c2)cc1` (stereo not drawn) the melting point was 105 to 108 °C.
`CC=Cc1nc2ccc(C)cc2c(=O)[nH]1` gave a melting point of 232 to 233 °C.
Molecule `CC(C)(CCc1ccccc1)NCC(O)c1ccc(O)c(C(N)=O)c1` (stereo not drawn) has a melting point of 154 °C.
In the case of `CC(=O)N1CCC(c2ccc(S(=O)(=O)Cl)cc2)CC1`, the melting point is reported as 133 to 134 °C.
`C1=NCCN1c1ccccc1` gave a melting point of 45 °C.
